Test results: patent US20050124624A1, “4-(4-methylpiperazin-1-ylmethyl)-n-[4-methyl-3-(4-pyridin-3-yl)pyrimidin-2-yl-amino)phenyl]-benzamide for threating ang ii-mediated diseases” (priority 2002, published 2005)

What was measured:
mesenteric vessels = assay: Histomorphometry of mesenteric vessels (media wall:lumen ratio, trichrome ECM) in angiotensin II-infused rats; type: in vivo, Sprague Dawley rats
Description: (§1) Rats were randomized to receive minipumps filled vehicle (0.15 M NaCl, 1 mmol/l acetic acid) either with or without angiotensin II (58 ng/min), as previously described (Cao Z et col. Kidney Int 58:2437-2451, 2000).
Histochemistry and immunohistochemistry: Histological studies of vascular architecture were performed in a subset of animals (n=8/group). Animals in this subgroup were anesthetized with pentobarbital sodium (Nembutal, Bomac Laboratories, Asquith, Australia) and vessels were perfused at arterial pressure with 10% neutral buffered formalin via an intra-aortic cannula. Tissues were then prepared as previously described (Cooper M E et col.; Diabetes 43:1221-1228,1994). In brief, mesenteric vessels were placed in ice cold phosphate buffer where fat, connective tissue and veins were removed by blunt dissection. The resultant vessel preparation was then embedded in paraffin. Sections were then either histochemically or immunohistochemically stained. […]
Quantification of histopathology: The proportion of vessel wall occupied by the media was identified by immunolabelling for α-smooth muscle actinand the ratio of the wall:lumen quantified using of a video-imaging system (Video Pro 32, Leading Edge, Bedford Park, South Australia, Australia), connected to a light microscope (Zeiss, Oberkocken, Germany) with photographic attachment (Axiophot, Zeiss, Oberkocken, Germany). Using this device, the media (areas stained with the anti-actin antibody) and corresponding lumenal areas were determined in a median of 20 (range 10-35) vessels per animal and expressed as wall:lumen ratio, as previously described in other models of vascular hypertrophy (Kakinuma Yet col.; Kidney Int 42:46-55., 1992).
Quantification of ECM was performed on trichrome-stained sections by calculating the proportion of area occupied by ECM using computer-assisted image analysis as previously described (Lehr H A, et col. J Histochem Cytochem 45:1559-1565, 1997). […]

[1] = system: Transforming growth factor-β1 (TGF-β1); assay: Quantitative real-time RT-PCR of mesenteric vessel TGF-β1 gene expression; type: in vivo, Sprague Dawley rats; conditions: mesenteric vessel mRNA, compared with untreated counterparts also subjected to angiotensin II-infusion
Description: as §1
(§2) RNA Extraction and cDNA synthesis Frozen mesenteric vascular tissue, stored at −80° C. was homogenized (Ultra-Turrax, Janke and Kunkel, Staufen, Germany) and total RNA was isolated by the acid guanidinium thiocyanate-phenol-chloroform extraction method (Chomczynski P, Sacchi N; Anal Biochem 162:156-159,1987). The purified RNA was dissolved in sterile water, quantified spectrophotometrically and its concentration adjusted to 1 μg/μl. […]
(§3) Quantitative Real Time RT-PCR: Transforming growth factor-β1 (TGF-β1) and platelet-derived growth factor (PDGF) gene expression was quantified by real-time RT-PCR using sequence specific primers as previously reported by our group (Ahola H, et col.; American Journal of Pathology 155:907-913,1999). […] Both probes included a fluorescence reporter (6-carboxyfluorescein [FAM]) at the 5′-end and a fluorescent quencher (6-carboxytetramethylrhodamine [TAMRA]) at the 3′-end. For the relative quantification of the target gene and the endogenous reference 18S ribosomal RNA (18S), real-time quantitative RT-PCR was performed using an GeneAmp 5700 Sequence Detector (PE Biosystems, Foster City, Calif.) according to the manufacturer's instructions. […]

[2] = system: platelet-derived growth factor (PDGF); assay: Quantitative real-time RT-PCR of mesenteric vessel PDGF gene expression; type: in vivo, Sprague Dawley rats; conditions: mesenteric vessel mRNA, angiotensin II infused animals
Description: as §1, §2, §3

[3] = system: angiotensin II-infused rats; assay: Angiotensin II infusion in rats: systolic blood pressure and mesenteric vessel weight; conditions: 60 mg/kg daily gavage, 12 days
[4] = trichrome stained sections, 60 mg/kg daily

For Cc1ccc(NC(=O)c2ccc(CN3CCN(C)CC3)cc2)cc1Nc1nccc(-c2cccnc2)n1 [Imatinib, N-{5-[4-(4-methyl-piperazino-methyl)-benzoylamido]-2-methylphenyl}-4-(3-pyridyl)-2-pyrimidine-amine], the “media wall:lumen ratio” value (mesenteric vessels; 60 mg/kg daily gavage, 12 days, p<0.001) was 0.4, the “extent of ECM expansion” value (mesenteric vessels; [4]) was “significantly reduced” and the media hypertrophy (mesenteric vessels; [4]) was “significantly reduced”. The TGF-β expression [1] was “further increase”, the PDGF gene expression [2] was “unaffected” and the systolic blood pressure ([3]; angiotensin II (58 ng/min) infused rats, tail-cuff, mean±SE, stated as no effect) was 205±10 mmHg. For the same compound, the mesenteric weight ([3]; animals receiving angiotensin II, p<0.001, significantly reduced) was 42 mg.
